Data: publication PMC7462607 (eLife, 2020)
Values joined by “and” are separate entries in the source; they are usually repeats but may differ in a detail not shown here. Equal entries are not always repeated. Where two headings read alike, the source gives them in different places.

Legend:
[1] = test system: A549 cells; experiment: Cell viability assay (CellTiter-Glo), A549; type: cell-based, Homo sapiens; conditions: for CellTiter-Glo (ATP): A549, raw signal, Rep 1-3
Protocol: (§1) Seven hundred A549 cells or 1,000 HCT-116 cells in 50 µL of medium were plated per well in 384-well flat clear bottom white polystyrene TC-treated microplates (Corning, Corning, USA). After overnight attachment, cells were dosed with a serial dilution of HQ461 with a D300e digital dispenser (Tecan, Männedorf, Switzerland). Cell survival was measured 72 hr later using CellTiter-Glo luminescent cell viability assay kit (Promega, Madison, USA) following vendor instructions. Luminescence was recorded by EnVison multimode plate reader (PerkinElmer, Waltham, USA). IC50 was determined with GraphPad Prism using baseline correction (by normalizing to DMSO control), the asymmetric (five parameter) equation, and least squares fit.

[2] = test system: A549 cells expressing sgRNAs (NTC, DDB1, RBX1, UBE2G1); experiment: Cell viability assay, A549 cells expressing non-targeting control or sgRNAs targeting DDB1, RBX1 or UBE2G1; type: cell-based, Homo sapiens; conditions: for CellTiter-Glo (ATP): raw signal; for IC50: Homo sapiens
Protocol: as §1
Two sgRNAs per gene were chosen from the Brunello library for DDB1 (5’-[…]-3’ and 5’-[…]-3’), RBX1 (5’- […]-3’ and 5’-[…]-3’), and UBE2G1 (5’-[…]-3’ and 5’- […]-3’). Annealed sgRNA oligos were cloned into the lentiCRISPR v2 vector. Lentiviral packaging was performed by co-transfecting the resulting plasmids with psPAX2 (Addgene 12260) and pMD2.G (Addgene 12259) into 293 T cells. Media collected from transfected 293 T cells was used to infect A549 cells at MOI ~ 5 for 4 days. The resulting cells were tested for their sensitivity to HQ461 using methods describe in the previous session cell viability assay.

[3] = molecular target: T1, 3xFLAG-CDK12/CCNK and DDB1 (Homo sapiens, UniProt Q9NYV4); experiment: Co-immunoprecipitation of CCNK and DDB1 with 3xFLAG-CDK12 complex; type: binding; conditions: A549 3xFLAG-CDK12 knock-in lysates
T1 construct: A549 3xFLAG-CDK12 knock-in cells were detached from plates by scraping; endogenous in cells; host or cells: A549 3xFLAG-CDK12 knock-in cells (lysate)
T1 sequence (Q9NYV4 whole entry): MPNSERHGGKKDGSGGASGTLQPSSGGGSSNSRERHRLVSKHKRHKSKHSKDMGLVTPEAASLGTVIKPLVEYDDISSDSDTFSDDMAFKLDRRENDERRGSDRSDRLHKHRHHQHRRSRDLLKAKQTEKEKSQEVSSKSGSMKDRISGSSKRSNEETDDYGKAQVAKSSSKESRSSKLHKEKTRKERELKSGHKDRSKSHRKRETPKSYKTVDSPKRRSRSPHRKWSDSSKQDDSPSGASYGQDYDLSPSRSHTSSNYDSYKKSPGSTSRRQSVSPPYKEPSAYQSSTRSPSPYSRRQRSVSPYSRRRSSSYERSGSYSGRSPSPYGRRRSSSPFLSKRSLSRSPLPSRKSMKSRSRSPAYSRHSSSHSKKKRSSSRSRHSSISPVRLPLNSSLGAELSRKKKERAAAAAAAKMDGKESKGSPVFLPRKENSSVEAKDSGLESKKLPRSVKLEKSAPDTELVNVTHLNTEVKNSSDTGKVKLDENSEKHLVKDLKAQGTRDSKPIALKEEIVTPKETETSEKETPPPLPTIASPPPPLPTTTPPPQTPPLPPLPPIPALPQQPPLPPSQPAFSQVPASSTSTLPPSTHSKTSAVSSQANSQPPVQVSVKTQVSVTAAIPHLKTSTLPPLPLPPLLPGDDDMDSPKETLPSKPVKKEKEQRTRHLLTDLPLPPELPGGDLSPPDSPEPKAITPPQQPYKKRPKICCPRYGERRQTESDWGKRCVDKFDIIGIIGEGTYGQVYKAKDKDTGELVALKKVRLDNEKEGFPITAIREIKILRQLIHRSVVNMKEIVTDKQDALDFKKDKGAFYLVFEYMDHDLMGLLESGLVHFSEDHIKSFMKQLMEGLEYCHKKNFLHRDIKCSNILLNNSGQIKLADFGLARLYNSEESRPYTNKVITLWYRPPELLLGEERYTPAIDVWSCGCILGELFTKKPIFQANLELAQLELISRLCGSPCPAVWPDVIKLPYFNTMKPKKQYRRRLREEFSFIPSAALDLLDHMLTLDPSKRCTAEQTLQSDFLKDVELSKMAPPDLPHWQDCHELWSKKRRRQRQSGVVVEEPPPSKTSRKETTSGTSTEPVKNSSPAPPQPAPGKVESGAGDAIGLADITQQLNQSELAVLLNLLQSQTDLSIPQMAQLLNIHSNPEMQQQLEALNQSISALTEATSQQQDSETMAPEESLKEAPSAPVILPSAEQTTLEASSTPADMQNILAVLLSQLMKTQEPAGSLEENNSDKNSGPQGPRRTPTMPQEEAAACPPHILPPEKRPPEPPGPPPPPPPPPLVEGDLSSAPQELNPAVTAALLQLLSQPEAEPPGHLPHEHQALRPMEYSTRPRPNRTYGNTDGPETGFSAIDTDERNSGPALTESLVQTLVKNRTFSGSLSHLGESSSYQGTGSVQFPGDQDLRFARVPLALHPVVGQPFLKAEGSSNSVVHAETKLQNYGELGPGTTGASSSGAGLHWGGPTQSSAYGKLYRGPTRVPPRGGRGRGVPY
T1 sequence (O75909 whole entry partner): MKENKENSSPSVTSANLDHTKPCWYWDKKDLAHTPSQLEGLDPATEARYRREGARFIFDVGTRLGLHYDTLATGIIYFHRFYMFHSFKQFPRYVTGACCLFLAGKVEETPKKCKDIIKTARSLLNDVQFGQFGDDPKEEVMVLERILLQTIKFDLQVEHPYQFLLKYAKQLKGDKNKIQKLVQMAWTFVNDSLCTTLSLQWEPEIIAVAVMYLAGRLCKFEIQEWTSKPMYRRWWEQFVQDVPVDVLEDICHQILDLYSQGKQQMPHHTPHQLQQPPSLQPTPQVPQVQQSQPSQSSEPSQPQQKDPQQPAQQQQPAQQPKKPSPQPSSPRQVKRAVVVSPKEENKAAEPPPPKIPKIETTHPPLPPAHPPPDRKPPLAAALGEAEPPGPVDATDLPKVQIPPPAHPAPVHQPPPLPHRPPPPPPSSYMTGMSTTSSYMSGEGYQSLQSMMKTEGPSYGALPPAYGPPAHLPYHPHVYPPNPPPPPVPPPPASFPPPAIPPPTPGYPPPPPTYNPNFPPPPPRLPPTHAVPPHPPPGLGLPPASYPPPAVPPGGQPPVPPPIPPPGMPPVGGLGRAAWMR
T1 sequence (Q16531 2-1140 partner limits assumed): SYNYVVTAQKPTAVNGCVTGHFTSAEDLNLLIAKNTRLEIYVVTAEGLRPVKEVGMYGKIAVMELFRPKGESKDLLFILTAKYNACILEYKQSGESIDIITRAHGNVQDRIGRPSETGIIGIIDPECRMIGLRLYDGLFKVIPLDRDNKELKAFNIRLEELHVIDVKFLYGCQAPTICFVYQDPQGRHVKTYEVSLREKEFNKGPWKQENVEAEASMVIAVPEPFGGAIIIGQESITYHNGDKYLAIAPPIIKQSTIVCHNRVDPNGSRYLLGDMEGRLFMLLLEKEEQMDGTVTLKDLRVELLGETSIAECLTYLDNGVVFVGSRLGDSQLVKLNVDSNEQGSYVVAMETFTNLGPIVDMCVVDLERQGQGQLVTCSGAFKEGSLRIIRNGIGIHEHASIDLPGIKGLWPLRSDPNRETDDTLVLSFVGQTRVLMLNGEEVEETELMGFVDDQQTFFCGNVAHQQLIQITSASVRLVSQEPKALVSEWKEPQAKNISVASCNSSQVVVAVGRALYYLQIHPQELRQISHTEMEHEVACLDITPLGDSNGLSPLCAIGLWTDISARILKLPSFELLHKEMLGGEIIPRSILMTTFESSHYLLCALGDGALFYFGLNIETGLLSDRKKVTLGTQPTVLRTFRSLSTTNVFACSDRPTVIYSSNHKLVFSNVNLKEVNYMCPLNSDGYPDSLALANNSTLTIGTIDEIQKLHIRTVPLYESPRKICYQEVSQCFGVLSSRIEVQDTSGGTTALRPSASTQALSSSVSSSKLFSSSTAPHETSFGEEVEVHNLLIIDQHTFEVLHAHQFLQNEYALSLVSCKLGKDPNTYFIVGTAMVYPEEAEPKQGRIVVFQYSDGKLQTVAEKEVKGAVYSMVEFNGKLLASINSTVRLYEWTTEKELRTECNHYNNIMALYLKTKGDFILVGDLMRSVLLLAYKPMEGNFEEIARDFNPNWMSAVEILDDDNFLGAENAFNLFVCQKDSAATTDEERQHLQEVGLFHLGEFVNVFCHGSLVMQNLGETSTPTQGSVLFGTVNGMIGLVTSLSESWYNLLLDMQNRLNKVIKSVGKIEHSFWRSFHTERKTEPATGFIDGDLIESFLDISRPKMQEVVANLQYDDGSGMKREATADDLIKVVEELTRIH
Protocol: Anti-FLAG M2 antibody (Sigma-Aldrich, MO, USA F3165) was coupled to magnetic epoxy beads (Beijing Yunci Technology Co., Beijing, China) at the ratio of 10 μg of anti-FLAG antibody/mg of beads in the presence of 1 M ammonium acetate and 0.1 M sodium phosphate, pH 7.4 at 37°C overnight. A549 3xFLAG-CDK12 knock-in cells were detached from plates by scraping, washed in DPBS, and then frozen in liquid nitrogen. Frozen cells were pulverized using a mixer mill MM 400 (Retsch, Haan, Germany) with two rounds of 1 min ball milling at 30 Hz. Per experiment, 25 mg of grinded cell powder was solubilized with 250 µL of IP buffer (50 mM HEPES, pH 7.4, 300 mM NaCl, 0.1% Tween-20) supplemented with 1x cOmplete, Mini, EDTA-free protease inhibitor cocktail (Roche, Bazel, Switzerland). The resulting lysates were centrifuged at 15,000 g for 10 min at 4°C. Clarified lysates were supplemented with HQ461 or DMSO and incubated at 4°C for 30 min. Afterwards, 0.2 mg of anti-FLAG-conjugated magnetic beads were mixed with clarified lysates for 15 min on a rotating platform at 4°C, followed by three washes with IP buffer supplemented with HQ461 or DMSO. Bound proteins were eluted from magnetic beads with 1 mg/ml of 3 × FLAG peptide (Sigma-Aldrich, MO, USA F4799) with agitation at 4°C for 30 min. Eluted proteins were subjected to SDS-PAGE and western blotting with anti-FLAG-HRP, anti-CCNK, and anti-DDB1. […]

In the case of `Cc1cccc(Nc2nc(CC(=O)Nc3ncc(C)s3)cs2)n1` [HQ461, 2-(2-((6-methylpyridin-2-yl)amino)thiazol-4-yl)-N-(5-methylthiazol-2-yl)acetamide], the “CellTiter-Glo (ATP)” value ([1]; HQ461 1.6e-6 M) is reported as 1.74E+06 and 1.39E+06 and 1.50E+06, the “CellTiter-Glo (ATP)” value ([1]; HQ461 3.12e-6 M) is reported as 360450 and 439670 and 341920 and the “CellTiter-Glo (ATP)” value ([1]; HQ461 6.31e-6 M) is reported as 173530 and 234990 and 251210. The “CellTiter-Glo (ATP)” value ([1]; HQ461 1.25e-5 M) was 146290 and 177880 and 172140, the “CellTiter-Glo (ATP)” value ([1]; HQ461 2.51e-5 M) was 65570 and 94080 and 92090 and the “CellTiter-Glo (ATP)” value ([1]; HQ461 2.00E-07 M) was 4.81E+06 and 4.79E+06 and 4.78E+06. The “CellTiter-Glo (ATP)” value ([1]; HQ461 3.96E-07 M) was 3.92E+06 and 3.86E+06 and 3.80E+06, the “CellTiter-Glo (ATP)” value ([1]; HQ461 4.80E-08 M) was 4.68E+06 and 4.34E+06 and 4.06E+06 and the “CellTiter-Glo (ATP)” value ([1]; HQ461 7.99E-07 M) was 3.98E+06 and 3.60E+06 and 3.16E+06. The “CellTiter-Glo (ATP)” value ([1]; HQ461 9.99E-08 M) was 3.91E+06 and 3.89E+06 and 3.96E+06, the IC50 ([1]; Homo sapiens, A549, 72 hr, CellTiter-Glo) was 1.3 µM and the “CellTiter-Glo (ATP)” value ([2]; A549 sgDDB1-1, HQ461 1.04e-6 M) was 266440 and 262730 and 269540. For the same molecule, the “CellTiter-Glo (ATP)” value ([2]; A549 sgDDB1-1, HQ461 1.84e-6 M) was 260200 and 241370 and 247600, the “CellTiter-Glo (ATP)” value ([2]; A549 sgDDB1-1, HQ461 5e-5 M) was 103060 and 118120 and 131920 and the “CellTiter-Glo (ATP)” value ([2]; A549 sgDDB1-1, HQ461 1.16E-07 M) was 267930 and 251180 and 224010. For the same molecule, the “CellTiter-Glo (ATP)” value ([2]; A549 sgDDB1-1, HQ461 2.04E-07 M) was 317680 and 266950 and 274210, the “CellTiter-Glo (ATP)” value ([2]; A549 sgDDB1-1, HQ461 3.52E-07 M) was 250370 and 237750 and 246820 and the “CellTiter-Glo (ATP)” value ([2]; A549 sgDDB1-1, HQ461 6.08E-07 M) was 264740 and 257780 and 224550. The “CellTiter-Glo (ATP)” value ([2]; A549 sgDDB1-1, HQ461 6.80E-08 M) was 250520 and 230710 and 232990, the “CellTiter-Glo (ATP)” value ([2]; A549 sgNTC, HQ461 1.04e-6 M) was 250120 and 267660 and 292550 and the “CellTiter-Glo (ATP)” value ([2]; A549 sgNTC, HQ461 1.84e-6 M) was 177290 and 247760 and 214770. The “CellTiter-Glo (ATP)” value ([2]; A549 sgNTC, HQ461 2.88e-5 M) was 34040, the “CellTiter-Glo (ATP)” value ([2]; A549 sgNTC, HQ461 5e-5 M) was 18410 and 24360 and 23900 and the “CellTiter-Glo (ATP)” value ([2]; A549 sgNTC, HQ461 1.16E-07 M) was 358110 and 293700 and 340660. The “CellTiter-Glo (ATP)” value ([2]; A549 sgNTC, HQ461 2.04E-07 M) was 291450 and 300990 and 265430, the “CellTiter-Glo (ATP)” value ([2]; A549 sgNTC, HQ461 3.52E-07 M) was 289350 and 289810 and 317840 and the “CellTiter-Glo (ATP)” value ([2]; A549 sgNTC, HQ461 6.08E-07 M) was 260230 and 280040 and 269860. The “CellTiter-Glo (ATP)” value ([2]; A549 sgNTC, HQ461 6.80E-08 M) was 322880 and 295000 and 291440, the “CellTiter-Glo (ATP)” value ([2]; A549 sgRBX1-1, HQ461 1.04e-6 M) was 306380 and 286480 and 313050 and the “CellTiter-Glo (ATP)” value ([2]; A549 sgRBX1-1, HQ461 1.84e-6 M) was 225540 and 237470 and 230500. For the same molecule, the “CellTiter-Glo (ATP)” value ([2]; A549 sgRBX1-1, HQ461 5e-5 M) was 43060 and 31790 and 35930, the “CellTiter-Glo (ATP)” value ([2]; A549 sgRBX1-1, HQ461 1.16E-07 M) was 288560 and 290760 and 286800 and the “CellTiter-Glo (ATP)” value ([2]; A549 sgRBX1-1, HQ461 2.04E-07 M) was 262410 and 264720 and 241220. The “CellTiter-Glo (ATP)” value ([2]; A549 sgRBX1-1, HQ461 3.52E-07 M) was 292190 and 292940 and 303380, the “CellTiter-Glo (ATP)” value ([2]; A549 sgRBX1-1, HQ461 6.08E-07 M) was 295780 and 267950 and 240730 and the “CellTiter-Glo (ATP)” value ([2]; A549 sgRBX1-1, HQ461 6.80E-08 M) was 297310 and 267380 and 272530. For the same molecule, the “CellTiter-Glo (ATP)” value ([2]; A549 sgUBE2G1-1, HQ461 1.04e-6 M) was 312980 and 335750 and 320370, the “CellTiter-Glo (ATP)” value ([2]; A549 sgUBE2G1-1, HQ461 1.84e-6 M) was 297250 and 326340 and 338010 and the “CellTiter-Glo (ATP)” value ([2]; A549 sgUBE2G1-1, HQ461 2.88e-5 M) was 51820 and 43500 and 48750. The “CellTiter-Glo (ATP)” value ([2]; A549 sgUBE2G1-1, HQ461 5e-5 M) was 35610 and 27850 and 21460, the “CellTiter-Glo (ATP)” value ([2]; A549 sgUBE2G1-1, HQ461 1.16E-07 M) was 299870 and 310810 and 340290 and the “CellTiter-Glo (ATP)” value ([2]; A549 sgUBE2G1-1, HQ461 2.04E-07 M) was 303360 and 350750 and 286460. The “CellTiter-Glo (ATP)” value ([2]; A549 sgUBE2G1-1, HQ461 3.52E-07 M) was 341410 and 309550 and 308880, the “CellTiter-Glo (ATP)” value ([2]; A549 sgUBE2G1-1, HQ461 6.08E-07 M) was 297850 and 310080 and 327760 and the “CellTiter-Glo (ATP)” value ([2]; A549 sgUBE2G1-1, HQ461 6.80E-08 M) was 296160 and 325630 and 360740. For the same molecule, the IC50 ([2]; A549, independent second sgRNA, Figure 1-figure supplement 2D, read-out: IC50 on the viability of A549 cells expressing sgRNA targeting DDB1) was > 28.8 µM, the IC50 ([2]; A549, independent second sgRNA, Figure 1-figure supplement 2D, read-out: IC50 on the viability of A549 cells expressing sgRNA targeting RBX1) was 11 µM and the IC50 ([2]; A549, independent second sgRNA, Figure 1-figure supplement 2D, read-out: IC50 on the viability of A549 cells expressing sgRNA targeting UBE2G1) was 13.6 µM. The IC50 ([2]; A549, sgDDB1, Figure 1D, read-out: IC50 on the viability of A549 cells expressing sgRNA targeting DDB1) was > 28.8 µM, the IC50 ([2]; A549, sgNTC, Figure 1D, read-out: IC50 on the viability of A549 cells expressing non-targeting control (NTC)) was 2.3 µM and the IC50 ([2]; A549, sgRBX1, Figure 1D, read-out: IC50 on the viability of A549 cells expressing sgRNA targeting RBX1) was 10.9 µM. The IC50 ([2]; A549, sgUBE2G1, Figure 1D, read-out: IC50 on the viability of A549 cells expressing sgRNA targeting UBE2G1) was 11.9 µM and the “recruitment of DDB1 to CDK12/CCNK (coimmunoprecipitation)” value [3] was “DDB1 was only detected with the CDK12/CCNK complex isolated from lysates treated with HQ461”.
